The record followed here is the supplement of paper PMC12317010.

Counter-ions that a name gives are not always drawn.

The data set is described as follows: collision cross section in nitrogen (drift tube, single-field); higher = larger gas-phase ion size.
[1] abbreviates: ion type: [M+H], ion source: APCI, ion mode: Positive.
Setting [2] is: ion type: [M+H], ion source: ESI, ion mode: Positive.
Setting [3] is: ion type: [M+Na], ion source: ESI, ion mode: Positive.
The mark [4] stands for this setting: ion type: [M+], ion source: APCI, ion mode: Positive.
[5] abbreviates: ion type: [M-H], ion source: ESI, ion mode: Negative.
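Note: chemical standards at 10 µM analysed by drift tube IMS-QTOF MS in about 3.95 torr nitrogen, mean of duplicate injections differing ≤1%, mass error below 10 ppm.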

Take `CC[C@H]1OC(=O)[C@H](C)[C@@H](O[C@H]2C[C@@](C)(OC)[C@@H](O)[C@H](C)O2)[C@H](C)[C@@H](O[C@@H]2O[C@H](C)C[C@H](N(C)C)[C@H]2O)[C@](C)(O)C[C@@H](C)C(=NOCOCCOC)[C@H](C)[C@@H](O)[C@]1(C)O` [Roxithromycin]: the “collision cross section in nitrogen” value turned out to be 277.7 Å² under setting [1]; 276.9 Å² under setting [2]; 280.7 Å² under setting [3]; 276.3 Å² under setting [4]; 282.3 Å² under setting [5]. Take `C=CCC1=C(C)[C@@H](OC(=O)[C@@H]2[C@@H](C=C(C)C)C2(C)C)CC1=O` [S-Bioallethrin]: the “collision cross section in nitrogen” value under setting [3] stood at 184.5 Å².

With `CCc1cccc(C)c1N(C(=O)CCl)[C@@H](C)COC` [S-Metolachlor], the “collision cross section in nitrogen” value was found to be 159.5 Å² under setting [1], 160.1 Å² under setting [2] and 172.5 Å² under setting [3]. `Cc1cc(C)c(C=C2C(=O)Nc3ccccc32)[nH]1` [SU-5416]: the “collision cross section in nitrogen” value worked out at 153.9 Å² under setting [1], 154.2 Å² under setting [2], 152.2 Å² under setting [4] and 158.4 Å² under setting [5]. For the molecule `O=C1NS(=O)(=O)c2ccccc21` [Saccharin], the “collision cross section in nitrogen” value under setting [5] is on record as 131.1 Å².

Regarding `NC(=O)c1ccccc1O` [Salicylamide], the “collision cross section in nitrogen” value under setting [5] came out at 122.2 Å². Consider `O=C(Nc1ccccc1)c1ccccc1O` [Salicylanilide], for which the “collision cross section in nitrogen” value reads like this: under setting [1], 144.8 Å²; under setting [5], 145.5 Å². Turning to `O=C(NO)c1ccccc1O` [Salicylhydroxamic acid], the “collision cross section in nitrogen” value under setting [5] was 124.5 Å². Still for that read-out and setting: the value for `O=C(O)c1ccccc1O` [Salicylic acid] was 121.2 Å².

Regarding `O=C(O)c1cn(-c2ccc(F)cc2)c2cc(N3CCNCC3)c(F)cc2c1=O` [Sarafloxacin], the “collision cross section in nitrogen” value is, setting by setting: under setting [1], 188.2 Å²; under setting [2], 188.3 Å²; under setting [3], 204.8 Å². Consider `C=C[C@](C)(O)CC[C@@H]1[C@@]2(C)CCCC(C)(C)[C@@H]2CC[C@@]1(C)O` [Sclareol], for which the “collision cross section in nitrogen” value is 189.2 Å² under setting [3] and 178.9 Å² under setting [5]. In the case of `CN1[C@@H]2C[C@@H](OC(=O)[C@H](CO)c3ccccc3)C[C@H]1[C@@H]1O[C@@H]12` [Scopolamine hydrobromide], the “collision cross section in nitrogen” value came to 170.8 Å² under setting [1] and 171.7 Å² under setting [2]. `CN1[C@@H]2C[C@@H](OC(=O)[C@H](CO)c3ccccc3)C[C@H]1[C@@H]1O[C@@H]12` [Scopolamine hydrochloride]: the “collision cross section in nitrogen” value is, setting by setting: under setting [1], 172.2 Å²; under setting [2], 171.7 Å².

For the molecule `CCNc1nc(NC(C)CC)nc(OC)n1` (configuration not stated) [Secbumeton], the “collision cross section in nitrogen” value amounted to 155.3 Å² under setting [1], 155.2 Å² under setting [2] and 172.2 Å² under setting [3]. Consider `CCCC(=NOCC)C1=C(O)CC(CC(C)SCC)CC1=O` (configuration not stated) [Sethoxydim], for which the “collision cross section in nitrogen” value runs as follows: under setting [1], 181.6 Å²; under setting [2], 181 Å²; under setting [5], 178.5 Å². For the molecule `CCNc1nc(Cl)nc(NCC)n1` [Simazine], the “collision cross section in nitrogen” value is on record as 143.3 Å² under setting [1] and 144 Å² under setting [2]. For `CCNc1nc(NCC)nc(SC)n1` [Simetryn] the same measures were 149.6 Å² and 149.5 Å². As to `CC(C)COC(=O)CC(C(=O)OCC(C)C)S(=O)(=O)O` (configuration not stated) [Sodium 1,4-diisobutyl sulfosuccinate], the “collision cross section in nitrogen” value under setting [5] stood at 174.4 Å². Turning to `O=S(=O)(O)c1cccc2ccccc12` [Sodium 1-naphthalenesulfonate], under setting [5], the “collision cross section in nitrogen” value came to 141.6 Å². The same measure, in the same setting: for `Cc1ccc(C)c(S(=O)(=O)O)c1` [Sodium 2,5-dimethylbenzenesulfonate] the value was 138.5 Å². In the case of `O=S(=O)(O)CCN1CCN(CCO)CC1` [Sodium 2-[4-(2-hydroxyethyl)piperazin-1-yl]ethanesulfonate], the “collision cross section in nitrogen” value is 151.1 Å² under setting [2] and 167.9 Å² under setting [3]. `O=C1c2ccccc2C(=O)c2cc(S(=O)(=O)O)ccc21` [Sodium 2-anthraquinonesulfonate]: under setting [5], the “collision cross section in nitrogen” value was found to be 162 Å². On to `O=Cc1ccccc1S(=O)(=O)O` [Sodium 2-formylbenzenesulfonate], for which the “collision cross section in nitrogen” value under setting [5] worked out at 130.9 Å². Consider `Sc1nc2ccccc2s1` [Sodium 2-mercaptobenzothiolate], for which the “collision cross section in nitrogen” value under setting [5] is 127.7 Å². Still for that read-out and setting: the value for `COc1ccc([N+](=O)[O-])cc1O` [Sodium 2-methoxy-5-nitrophenolate] was 129.6 Å²; that for `Cc1ccccc1S(=O)(=O)O` [Sodium 2-methylbenzenesulfonate] was 131.7 Å²; that for `C=C(C)CS(=O)(=O)O` [Sodium 2-methylprop-2-ene-1-sulfonate] was 124.2 Å².

On to `O=[N+]([O-])c1ccccc1O` [Sodium 2-nitrophenolate], for which, under setting [5], the “collision cross section in nitrogen” value worked out at 121.6 Å².

In the case of `Oc1ccccc1-c1ccccc1` [Sodium 2-phenylphenate tetrahydrate], the “collision cross section in nitrogen” value under setting [5] was 136.6 Å². Take `O=C(O)c1cccc([N+](=O)[O-])c1` [Sodium 3-nitrobenzoate]: under setting [5], the “collision cross section in nitrogen” value was found to be 131.2 Å². Regarding `CC(C)c1ccc(S(=O)(=O)O)cc1` [Sodium 4-isopropylbenzenesulfonate], the “collision cross section in nitrogen” value under setting [5] is reported as 147.5 Å². Consider `Cc1ccc(S(=O)(=O)O)cc1` [Sodium 4-methylbenzenesulfonate], for which the “collision cross section in nitrogen” value under setting [5] stood at 135.2 Å². Same read-out and setting: the value for `O=[N+]([O-])c1ccc(O)cc1` [Sodium 4-nitrophenolate] was 120.5 Å²; that for `CCCCCCCCc1ccc(S(=O)(=O)O)cc1` [Sodium 4-octylbenzenesulfonate] was 173.9 Å²; that for `O=S(=O)(O)c1ccc2cc(O)ccc2c1` [Sodium 6-hydroxynaphthalene-2-sulfonate] was 148.7 Å².

For `N[C@@H](CCC(=O)O)C(=O)O` [Sodium L-glutamate hydrate], the “collision cross section in nitrogen” value under setting [5] came to 125.4 Å². Turning to `CC(C)C1=CC2=CC[C@@H]3[C@](C)(CCC[C@@]3(C)C(=O)O)[C@H]2CC1` [Sodium abietate], the “collision cross section in nitrogen” value under setting [5] was 182 Å². Turning to `COc1cccc2c1cc([N+](=O)[O-])c1c(C(=O)O)cc3c(c12)OCO3` [Sodium aristolochate-I], the “collision cross section in nitrogen” value under setting [3] is on record as 185.6 Å². For `[O-][Cl+]O` [Sodium chlorite], the “collision cross section in nitrogen” value under setting [5] was 105.2 Å². Turning to `CCCCCCCCCCOS(=O)(=O)O` [Sodium decyl sulfate], the “collision cross section in nitrogen” value under setting [5] worked out at 158.1 Å². Turning to `CC(C)CP(=S)(S)CC(C)C` [Sodium diisobutyldithiophosphinate], under setting [5], the “collision cross section in nitrogen” value was 146.5 Å².

In the case of `CCCCCCCCCCCCc1ccccc1S(=O)(=O)O` [Sodium dodecylbenzenesulfonate], the “collision cross section in nitrogen” value reads like this: under setting [3], 167.5 Å²; under setting [5], 186.3 Å².

As for `CCCCC(CC)COS(=O)(=O)O` (configuration not stated) [Sodium ethasulfate hydrate], under setting [5], the “collision cross section in nitrogen” value was determined as 150.1 Å².

As for `CCCCC(CC)COS(=O)(=O)O` (configuration not stated) [Sodium ethasulfate], under setting [5], the “collision cross section in nitrogen” value was 150.5 Å². Take `C=CS(=O)(=O)O` [Sodium ethenesulfonate]: under setting [5], the “collision cross section in nitrogen” value is recorded as 113.6 Å². Still for that read-out and setting: the value for `CCCCCCCCCCCCCCCCOS(=O)(=O)O` [Sodium hexyldecyl sulfate] was 181.3 Å². Turning to `Cc1ccc(S(=O)(=O)O)c(C)c1` [Sodium m-xylene-4-sulfonate], the “collision cross section in nitrogen” value under setting [5] was found to be 138.9 Å². Still for that read-out and setting: the value for `COS(=O)(=O)O` [Sodium methyl sulfate] was 113.1 Å²; that for `CCCCCCCCCCCCCCOS(=O)(=O)O` [Sodium myristyl sulfate] was 173.4 Å². Consider `O=C(O)c1cccnc1` [Sodium nicotinate], for which the “collision cross section in nitrogen” value under setting [1] worked out at 123.5 Å² and the “collision cross section in nitrogen” value under setting [2] is reported as 124.5 Å².

`CCCCCCCCCOS(=O)(=O)O` [Sodium nonyl sulfate]: under setting [5], the “collision cross section in nitrogen” value is 154.5 Å². Regarding `CCCCCCCCOS(=O)(=O)O` [Sodium octyl sulfate], the “collision cross section in nitrogen” value under setting [5] came out at 151.3 Å². For the molecule `CC(C)(CO)[C@@H](O)C(=O)NCCC(=O)O` [Sodium pantothenate], the “collision cross section in nitrogen” value reads like this: under setting [3], 151.2 Å²; under setting [5], 147.1 Å².

Consider `F[B-](F)(F)F` [Sodium tetrafluoroborate], for which the “collision cross section in nitrogen” value (ion source: ESI, ion mode: Negative, ion type: [M]- (permanent anion)) is reported as 101 Å². Regarding `CCCCCCCCCCCCCOS(=O)(=O)O` [Sodium tridecyl sulfate], under setting [5], the “collision cross section in nitrogen” value is given as 170 Å². Turning to `CCCC(CCC)C(=O)O` [Sodium valproate], the “collision cross section in nitrogen” value under setting [5] was 137 Å². Turning to `CC(=O)CC(c1ccccc1)c1c(O)c2ccccc2oc1=O` (configuration not stated) [Sodium warfarin], the “collision cross section in nitrogen” value is 167.1 Å² under setting [1], 167 Å² under setting [2], 178.6 Å² under setting [3] and 172.5 Å² under setting [5].

For `CCCCCCCC/C=C\CCCCCCCC(=O)OC[C@@H](O)[C@H]1OC[C@H](O)[C@H]1O` [Sorbitan, mono-(9Z)-9-octadecenoate], the “collision cross section in nitrogen” value was 211.8 Å² under setting [3] and 207.7 Å² under setting [5]. Turning to `C[C@@H]1CN(c2c(F)c(N)c3c(=O)c(C(=O)O)cn(C4CC4)c3c2F)C[C@H](C)N1` [Sparfloxacin], the “collision cross section in nitrogen” value under setting [2] turned out to be 190.2 Å². `CCC(C)(C)C(=O)OC1=C(c2ccc(Cl)cc2Cl)C(=O)OC12CCCCC2` [Spirodiclofen]: the “collision cross section in nitrogen” value under setting [3] turned out to be 209.5 Å². `CCOC(=O)OC1=C(c2cc(C)ccc2C)C(=O)N[C@]12CC[C@@H](OC)CC2` [Spirotetramat]: the “collision cross section in nitrogen” value by setting is: under setting [1], 190.2 Å²; under setting [2], 189.3 Å²; under setting [3], 202.3 Å².
